According to ChEMBL document CHEMBL1201862, “PubChem BioAssay data set” (2004):
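In this assay, cells in 96-well plates receive the compound at five concentrations for 48 hours. Endpoints are linearly interpolated between the surrounding concentrations. The concentration for 50% growth inhibition is given as GI50.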 Activity calls are given as the source filed them. No stated cut-off is given here; in the data, active = GI50 up to about 1.1 µM and inactive = higher.

Key:
Assay in all cases: DTP human tumour cell line panel, 48 h
A498 = test system: A498
ACHN = test system: ACHN
COLO 205 = test system: COLO 205
EKVX = test system: EKVX
HCT-116 = test system: HCT-116
KM12 = test system: KM12
M14 = test system: M14
NCI-H226 = test system: NCI-H226
NCI-H460 = test system: NCI-H460
NCI-H522 = test system: NCI-H522
OVCAR-5 = test system: OVCAR-5
OVCAR-8 = test system: OVCAR-8
RXF 393 = test system: RXF 393
SF-295 = test system: SF-295
SR = test system: SR
TK-10 = test system: TK-10
UACC-62 = test system: UACC-62
LOX IMVI = test system: LOX IMVI

Row | SMILES | GI50 (A498) | GI50 (ACHN) | GI50 (COLO 205) | GI50 (EKVX) | GI50 (HCT-116) | GI50 (KM12) | GI50 (M14) | GI50 (NCI-H226) | GI50 (NCI-H460) | GI50 (NCI-H522) | GI50 (OVCAR-5) | GI50 (OVCAR-8) | GI50 (RXF 393) | GI50 (SF-295) | GI50 (SR) | GI50 (TK-10) | GI50 (UACC-62) | GI50 (LOX IMVI)
1 | CC(C)OCN1COCN/C1=N/C#N | > 100 µM (inactive) | > 100 µM (inactive) | 20.8 µM (inactive) | > 100 µM (inactive) | > 100 µM (inactive) | > 100 µM (inactive) | > 100 µM (inactive) | > 100 µM (inactive) | > 100 µM (inactive) | > 100 µM (inactive) | > 100 µM (inactive) | > 100 µM (inactive) | > 100 µM (inactive) | > 100 µM (inactive) | > 100 µM (inactive) | > 100 µM (inactive) | > 100 µM (inactive) | –
2 | N#CC1C(=O)NC(=O)C1=O (configuration not stated) | > 100 µM (inactive) | > 100 µM (inactive) | > 100 µM (inactive) | > 100 µM (inactive) | > 100 µM (inactive) | > 100 µM (inactive) | > 100 µM (inactive) | > 100 µM (inactive) | > 100 µM (inactive) | > 100 µM (inactive) | > 100 µM (inactive) | > 100 µM (inactive) | > 100 µM (inactive) | > 100 µM (inactive) | – | > 100 µM (inactive) | > 100 µM (inactive) | > 100 µM (inactive)
3 | Cc1cc(NS(=O)(=O)c2ccc(NC(=O)c3cccc4c(=O)c5ccccc5[nH]c34)cc2)no1 | 28.8 µM (inactive) | 65.6 µM (inactive) | 50.5 µM (inactive) | 43.6 µM (inactive) | 36.9 µM (inactive) | 78.3 µM (inactive) | – | 41.9 µM (inactive) | 93.3 µM (inactive) | 14.2 µM (inactive) | 94.6 µM (inactive) | 12.5 µM (inactive) | – | > 10 µM (inactive) | 28.2 µM (inactive) | 40.2 µM (inactive) | 26.1 µM (inactive) | 31.4 µM (inactive)
4 | CCCCN/C(=N/C#N)NCc1ccccc1 | > 100 µM (inactive) | > 100 µM (inactive) | > 100 µM (inactive) | > 100 µM (inactive) | > 100 µM (inactive) | > 100 µM (inactive) | > 100 µM (inactive) | > 100 µM (inactive) | > 100 µM (inactive) | > 100 µM (inactive) | > 100 µM (inactive) | > 100 µM (inactive) | – | > 100 µM (inactive) | > 100 µM (inactive) | > 100 µM (inactive) | > 100 µM (inactive) | > 100 µM (inactive)
5 | O=C(O)CC1CC=C[C@H]2c3cc4c(cc3C(=O)NC12)OCO4 (some centres not stated) | – | > 75 µM (inactive) | > 75 µM (inactive) | > 75 µM (inactive) | > 75 µM (inactive) | > 75 µM (inactive) | > 75 µM (inactive) | 44.7 µM (inactive) | > 75 µM (inactive) | > 75 µM (inactive) | – | > 75 µM (inactive) | > 75 µM (inactive) | > 75 µM (inactive) | > 75 µM (inactive) | > 75 µM (inactive) | > 75 µM (inactive) | > 75 µM (inactive)
6 | CCCN(CCC)C(=O)c1nc(N)nc(-c2ccc(OC)cc2)c1-c1ccc(OC)cc1 | > 100 µM (inactive) | > 100 µM (inactive) | > 100 µM (inactive) | > 100 µM (inactive) | > 100 µM (inactive) | > 100 µM (inactive) | > 100 µM (inactive) | > 100 µM (inactive) | > 100 µM (inactive) | 98.9 µM (inactive) | > 100 µM (inactive) | > 100 µM (inactive) | – | > 100 µM (inactive) | – | > 100 µM (inactive) | > 100 µM (inactive) | –
7 | CCCCOCn1c(=O)[nH]c(=O)c2ccccc21 | > 100 µM (inactive) | 32.9 µM (inactive) | > 100 µM (inactive) | 44.9 µM (inactive) | > 100 µM (inactive) | > 100 µM (inactive) | > 100 µM (inactive) | 49.5 µM (inactive) | 88.1 µM (inactive) | – | > 100 µM (inactive) | 37.5 µM (inactive) | 48.2 µM (inactive) | > 100 µM (inactive) | > 100 µM (inactive) | > 100 µM (inactive) | > 100 µM (inactive) | > 100 µM (inactive)
8 | CCN(CC)CCN1CCN=C2c3cc(OC)ccc3Nc3c([N+](=O)[O-])ccc1c32 | – | – | 1 µM (active) | 1.69 µM (inactive) | – | 1.15 µM (inactive) | 1 µM (active) | – | – | – | – | 0.441 µM (active) | 0.843 µM (active) | 1.82 µM (inactive) | 0.221 µM (active) | 2.8 µM (inactive) | 1 µM (active) | 1.41 µM (inactive)
9 | O=C1[C@H]2ON(c3ccccc3)C(c3ccco3)[C@H]2C(=O)N1c1ccc(Cc2ccc(N3C(=O)[C@@H]4ON(c5ccccc5)C(c5ccco5)[C@@H]4C3=O)cc2)cc1 (some centres not stated) | > 100 µM (inactive) | > 100 µM (inactive) | 78.2 µM (inactive) | – | – | > 100 µM (inactive) | 82.2 µM (inactive) | > 100 µM (inactive) | > 100 µM (inactive) | – | > 100 µM (inactive) | – | > 100 µM (inactive) | > 100 µM (inactive) | – | – | 85.3 µM (inactive) | > 100 µM (inactive)
10 | CCc1cc(C)cc2[n+]1CC=C2.[O-][Cl+3]([O-])([O-])[O-] | – | 10.4 µM (inactive) | 21.9 µM (inactive) | 25.4 µM (inactive) | 18.2 µM (inactive) | 32.9 µM (inactive) | 22.3 µM (inactive) | 15.7 µM (inactive) | 27.3 µM (inactive) | 13.1 µM (inactive) | 15.5 µM (inactive) | 3.97 µM (inactive) | > 100 µM (inactive) | 31.6 µM (inactive) | – | 44.1 µM (inactive) | – | 32.7 µM (inactive)
11 | CC12CC(=O)OC(Cc3ccccc31)O2 (configuration not stated) | – | > 100 µM (inactive) | > 100 µM (inactive) | > 100 µM (inactive) | > 100 µM (inactive) | > 100 µM (inactive) | > 100 µM (inactive) | > 100 µM (inactive) | > 100 µM (inactive) | > 100 µM (inactive) | – | > 100 µM (inactive) | > 100 µM (inactive) | > 100 µM (inactive) | > 100 µM (inactive) | > 100 µM (inactive) | > 100 µM (inactive) | > 100 µM (inactive)
12 | COc1cc(-c2cc(-c3cc([N+](=O)[O-])c(/C=N/NC(=O)c4ccncc4)o3)ccc2OC)ccc1C | > 100 µM (inactive) | > 100 µM (inactive) | > 100 µM (inactive) | > 100 µM (inactive) | – | – | > 100 µM (inactive) | > 100 µM (inactive) | – | > 100 µM (inactive) | > 100 µM (inactive) | – | > 100 µM (inactive) | > 100 µM (inactive) | – | > 100 µM (inactive) | > 100 µM (inactive) | > 100 µM (inactive)
13 | CCOC(=O)c1sc2c(C(=O)OCC)n3ccccc3c2c1N | 71.9 µM (inactive) | 52.8 µM (inactive) | > 100 µM (inactive) | 59.4 µM (inactive) | 81.5 µM (inactive) | > 100 µM (inactive) | > 100 µM (inactive) | > 10 µM (inactive) | > 100 µM (inactive) | 20.3 µM (inactive) | > 100 µM (inactive) | 61.9 µM (inactive) | 20.2 µM (inactive) | 44.6 µM (inactive) | – | 52.7 µM (inactive) | > 100 µM (inactive) | > 100 µM (inactive)
14 | CCOC(=O)C(=O)Nc1nc2c(s1)C(=O)c1ccccc1C2=O | 16.1 µM (inactive) | 14.9 µM (inactive) | 22.5 µM (inactive) | 16.1 µM (inactive) | 13.3 µM (inactive) | 16 µM (inactive) | 15.7 µM (inactive) | 18.2 µM (inactive) | 19.2 µM (inactive) | 14.9 µM (inactive) | 27.7 µM (inactive) | 10.6 µM (inactive) | – | – | 3.43 µM (inactive) | – | 17.5 µM (inactive) | –
15 | COc1cc(O)c(C(=O)/C=C/c2ccc(OC)c(OCc3ccccc3)c2)c(OC)c1 | – | 5.58 µM (inactive) | 0.0446 µM (active) | > 100 µM (inactive) | 4.55 µM (inactive) | 31 µM (inactive) | > 100 µM (inactive) | > 100 µM (inactive) | > 100 µM (inactive) | 7.46 µM (inactive) | > 100 µM (inactive) | 6.84 µM (inactive) | 5.21 µM (inactive) | 0.301 µM (active) | 4.08 µM (inactive) | > 100 µM (inactive) | 1.42 µM (inactive) | 33.7 µM (inactive)
16 | O=CN/C=C/c1ccc(O)c(O)c1 | > 100 µM (inactive) | > 100 µM (inactive) | > 100 µM (inactive) | > 100 µM (inactive) | > 100 µM (inactive) | > 100 µM (inactive) | > 100 µM (inactive) | > 100 µM (inactive) | > 100 µM (inactive) | 52.1 µM (inactive) | > 100 µM (inactive) | > 100 µM (inactive) | > 100 µM (inactive) | > 100 µM (inactive) | – | > 100 µM (inactive) | > 100 µM (inactive) | > 100 µM (inactive)
17 | O=c1cc(-c2ccc(O)cc2)oc2cc(O)cc(O)c12 [APIGENIN] | – | 15.1 µM (inactive) | 38.9 µM (inactive) | 33.5 µM (inactive) | 24.2 µM (inactive) | 23.1 µM (inactive) | 44.4 µM (inactive) | 24.7 µM (inactive) | 31.4 µM (inactive) | 15.8 µM (inactive) | 30.5 µM (inactive) | – | – | 27.2 µM (inactive) | 33.6 µM (inactive) | 41.2 µM (inactive) | 24.8 µM (inactive) | 21.4 µM (inactive)
